Test results as given in article PMC7688903 (Frontiers in Microbiology, 2020).
Where a SMILES comes first, the peptide text is derived from it. [ ]: non-standard residue; d: D form. 2Thi = N[C@@H](Cc1cccs1)C(=O)O; Aib = CC(C)(N)C(=O)O

Tests used:
[1] = test system: all of the bacterial and fungal supernatants tested; conditions: pH 8.0, peptide 0.5 mg/mL, 37°C, 24 h, RP-HPLC
Method: The stabilities of the peptides toward proteases secreted by E. coli ATCC 25922, P. aeruginosa ATCC 27853, A. baumannii ATCC 19606, S. aureus ATCC 25923, and C. albicans ATCC 10231 were also examined. Microbial supernatants were prepared by resuspending single colonies of each strain in 20 mL of an appropriate culture medium followed by incubation at 37°C overnight. MH broth and 2% tryptone/2% dextrose were used as the culture media for bacteria and yeast, respectively. Each culture was then centrifuged at 12,000 × g for 10 min and the supernatant was adjusted to pH 8.0 with HCl or NaOH and then filtered through a 0.22 μm sterile filter membrane ([Zaet et al., 2017]). The peptides were then dissolved in the filtered supernatants to a concentration of 0.5 mg/mL, and the peptide-free supernatants were used as negative controls. The samples were incubated at 37°C for 24 h in a water bath and then analyzed by RP-HPLC as described above.

[2] = Hydrophobicity by RP-HPLC retention time; type: physicochemical
Method: Each peptide was dissolved in ddH2O to a concentration of 0.5 mg/mL and then subjected to RP-HPLC on an analytical Waters XBridge C18 column (length: 250 mm, internal diameter: 4.6 mm) using 0.1% TFA in water as solvent A and 0.1% TFA in acetonitrile as solvent B. The peptides were eluted using a linear gradient as follows: 5%B to 45%B over 20 min, 45%B to 60%B over 2 min, and 60%B to 5%B over 1 min. The flow rate was 1 mL/min and the absorbance was measured at 215 nm. The retention time was recorded for each peptide ([Kim et al., 2005]).
Peptide hydrophobicity, net charge, amphipathic nature, and secondary structure are believed to be important for antimicrobial activity ([Lee et al., 2016]; [Li J. et al., 2017]). Among these, hydrophobicity has been recognized as an important factor to promote hydrophobic interaction with the hydrophobic core of the lipid bilayer, leading to membrane disruption, cytoplasm leakage, and eventual cell death ([Schmidtchen et al., 2014]). However, the actual hydrophobicity in liquid environment has been reported to usually show disagreement with the theoretical mean hydrophobicity ([Kim et al., 2005]). […] More hydrophobic compounds are typically eluted later from the column. […]

Structure (SMILES) | original peptide remaining in microbial supernatants [1] | relative retention time (RRT) with respect to Pep05 ([2]; RP-HPLC retention time of peptide / that of Pep05, C18, acetonitrile/water/TFA) | RT (RP-HPLC retention time, measure of hydrophobicity) ([2]; chromatographic, Waters XBridge C18 250 x 4.6 mm, 0.5 mg/mL in ddH2O, A 0.1% TFA/water, B 0.1% TFA/acetonitrile, 5-45%B over 20 min, 1 mL/min, UV 215 nm) [min]
CC(C)C[C@H](NC(=O)[C@H](CC(C)C)NC(=O)[C@@H](CCCCN)NC(=O)[C@@H](CCCCN)NC(=O)[C@H](Cc1ccccc1)NC(=O)[C@H](CC(C)C)NC(=O)[C@@H](CCCNC(=N)N)NC(=O)[C@H](N)CCCCN)C(=O)N[C@H](CCCCN)C(=O)N[C@@H](Cc1ccc(O)cc1)C(=O)N[C@@H](CC(C)C)C(=O)N[C@H](CCCNC(=N)N)C(=O)N[C@H](CCCCN)C(=O)N[C@@H](Cc1ccccc1)C(N)=O [DP06] (H-[dK][dR]LF[dK][dK]LL[dK]YL[dR][dK]F-NH2) | more than 60% |  | 
CC(C)C[C@H](NC(=O)[C@H](Cc1ccc(O)cc1)NC(=O)[C@H](CCCCN)NC(=O)[C@H](CC(C)C)NC(=O)[C@H](CC(C)C)NC(=O)[C@H](CCCCN)NC(=O)[C@H](CCCCN)NC(=O)[C@H](Cc1ccccc1)NC(=O)[C@H](CC(C)C)NC(=O)[C@H](CCCNC(=N)N)NC(=O)C(C)(C)N)C(=O)N[C@@H](CCCNC(=N)N)C(=O)N[C@@H](CCCCN)C(=O)N[C@@H](Cc1cccs1)C(N)=O [UP09] (H-[Aib]RLFKKLLKYLRK[2Thi]-NH2; N-terminus assumed) |  | 1.08 | 16.606
